From ChEMBL document CHEMBL2424658, “Design, synthesis, and evaluation of novel 1-methyl-3-substituted quinazoline-2,4-dione derivatives as antimicrobial agents” (2013)
≈ marks a conversion by molar mass, not a printed value.

Legend:
Format in all cases: functional
Cryptococcus neoformans = assay: Antifungal activity against Cryptococcus neoformans after overnight incubation by […] method
Aspergillus flavus = assay: Antifungal activity against Aspergillus flavus 3905 after overnight incubation by […] method
Saccharomyces cerevisiae = assay: Antifungal activity against Saccharomyces cerevisiae CGMCC2.145 after overnight incubation by […] method
Candida albicans = assay: Antifungal activity against Candida albicans ATCC 76615 after overnight incubation by […] method
Candida = assay: Antifungal activity against Candida mycoderma after overnight incubation by […] method
Pseudomonas aeruginosa = assay: Antibacterial activity against Pseudomonas aeruginosa CR 56 after overnight incubation by […] method
Bacillus = assay: Antibacterial activity against Bacillus proteus after overnight incubation by […] method
Escherichia coli = assay: Antibacterial activity against Escherichia coli JM 109 after overnight incubation by […] method
Bacillus subtilis = assay: Antibacterial activity against Bacillus subtilis ATCC 6633 after overnight incubation by […] method
Staphylococcus aureus [1] = assay: Antibacterial activity against methicillin-resistant Staphylococcus aureus N315 after overnight incubation by […] method
Staphylococcus aureus [2] = assay: Antibacterial activity against Staphylococcus aureus ATCC 25923 after overnight incubation by […] method

SMILES	MIC (Cryptococcus neoformans) [µg/mL]	MIC (Aspergillus flavus) [µg/mL]	MIC (Saccharomyces cerevisiae) [µg/mL]	MIC (Candida albicans) [µg/mL]	MIC (Candida) [µg/mL]	MIC (Pseudomonas aeruginosa) [µg/mL]	MIC (Bacillus) [µg/mL]	MIC (Escherichia coli) [µg/mL]	MIC (Bacillus subtilis) [µg/mL]	MIC (Staphylococcus aureus [1]) [µg/mL]	MIC (Staphylococcus aureus [2]) [µg/mL]
NC(=O)OC[C@H](O)[C@@H](O)[C@H](N)C(=O)N[C@H](C(=O)O)[C@H]1O[C@@H](n2cc(C(=O)O)c(=O)[nH]c2=O)[C@H](O)[C@@H]1O	0.0312 (≈ 0.0599 µM)	32 (≈ 61.4 µM)	16 (≈ 30.7 µM)	32 (≈ 61.4 µM)	8 (≈ 15.3 µM)	–	–	–	–	–	–
Cn1c(=O)n(CCOC(=O)CNC(=O)/C=C\c2ccccc2)c(=O)c2ccccc21	8 (≈ 19.6 µM)	32 (≈ 78.5 µM)	–	512 (≈ 1260 µM)	512 (≈ 1260 µM)	> 512	256 (≈ 628 µM)	16 (≈ 39.3 µM)	4 (≈ 9.82 µM)	4 (≈ 9.82 µM)	128 (≈ 314 µM)
Cn1c(=O)n(CCOC(=O)CNC(=O)c2ccco2)c(=O)c2ccccc21	128 (≈ 345 µM)	64 (≈ 172 µM)	–	32 (≈ 86.2 µM)	64 (≈ 172 µM)	128 (≈ 345 µM)	128 (≈ 345 µM)	4 (≈ 10.8 µM)	4 (≈ 10.8 µM)	> 512	256 (≈ 689 µM)
Cc1ccc(C(=O)NCC(=O)OCCn2c(=O)c3ccccc3n(C)c2=O)cc1	16 (≈ 40.5 µM)	64 (≈ 162 µM)	–	32 (≈ 80.9 µM)	512 (≈ 1290 µM)	128 (≈ 324 µM)	32 (≈ 80.9 µM)	512 (≈ 1290 µM)	64 (≈ 162 µM)	512 (≈ 1290 µM)	512 (≈ 1290 µM)
Cn1c(=O)n(CCOC(=O)CNC(=O)c2cccc([N+](=O)[O-])c2)c(=O)c2ccccc21	128 (≈ 300 µM)	64 (≈ 150 µM)	–	64 (≈ 150 µM)	16 (≈ 37.5 µM)	512 (≈ 1200 µM)	128 (≈ 300 µM)	16 (≈ 37.5 µM)	256 (≈ 600 µM)	4 (≈ 9.38 µM)	128 (≈ 300 µM)
Cn1c(=O)n(CCOC(=O)CNC(=O)c2ccc(F)cc2)c(=O)c2ccccc21	16 (≈ 40.1 µM)	64 (≈ 160 µM)	–	32 (≈ 80.1 µM)	64 (≈ 160 µM)	256 (≈ 641 µM)	512 (≈ 1280 µM)	64 (≈ 160 µM)	128 (≈ 320 µM)	4 (≈ 10 µM)	256 (≈ 641 µM)
Cn1c(=O)n(CCOC(=O)CNC(=O)c2ccc(Cl)cc2)c(=O)c2ccccc21	32 (≈ 77 µM)	32 (≈ 77 µM)	–	64 (≈ 154 µM)	512 (≈ 1230 µM)	256 (≈ 616 µM)	256 (≈ 616 µM)	256 (≈ 616 µM)	128 (≈ 308 µM)	512 (≈ 1230 µM)	128 (≈ 308 µM)
Cc1ccccc1C(=O)NCC(=O)OCCn1c(=O)c2ccccc2n(C)c1=O	16 (≈ 40.5 µM)	128 (≈ 324 µM)	–	512 (≈ 1290 µM)	512 (≈ 1290 µM)	256 (≈ 647 µM)	32 (≈ 80.9 µM)	32 (≈ 80.9 µM)	64 (≈ 162 µM)	32 (≈ 80.9 µM)	512 (≈ 1290 µM)
Cn1c(=O)n(CCOC(=O)CNC(=O)c2cccc(F)c2)c(=O)c2ccccc21	256 (≈ 641 µM)	64 (≈ 160 µM)	–	16 (≈ 40.1 µM)	512 (≈ 1280 µM)	128 (≈ 320 µM)	512 (≈ 1280 µM)	128 (≈ 320 µM)	256 (≈ 641 µM)	32 (≈ 80.1 µM)	128 (≈ 320 µM)
Cn1c(=O)n(CCOC(=O)CNC(=O)c2cccs2)c(=O)c2ccccc21	256 (≈ 661 µM)	64 (≈ 165 µM)	–	512 (≈ 1320 µM)	512 (≈ 1320 µM)	64 (≈ 165 µM)	64 (≈ 165 µM)	64 (≈ 165 µM)	32 (≈ 82.6 µM)	32 (≈ 82.6 µM)	512 (≈ 1320 µM)
COc1ccc(C(=O)NCC(=O)OCCn2c(=O)c3ccccc3n(C)c2=O)cc1	32 (≈ 77.8 µM)	128 (≈ 311 µM)	–	32 (≈ 77.8 µM)	512 (≈ 1240 µM)	128 (≈ 311 µM)	512 (≈ 1240 µM)	512 (≈ 1240 µM)	4 (≈ 9.72 µM)	256 (≈ 622 µM)	512 (≈ 1240 µM)
Cn1c(=O)n(CCOC(=O)CNC(=O)c2ccccc2Cl)c(=O)c2ccccc21	128 (≈ 308 µM)	128 (≈ 308 µM)	–	32 (≈ 77 µM)	64 (≈ 154 µM)	128 (≈ 308 µM)	128 (≈ 308 µM)	512 (≈ 1230 µM)	64 (≈ 154 µM)	> 512	512 (≈ 1230 µM)
Cn1c(=O)n(CCOC(=O)CNC(=O)c2ccccc2)c(=O)c2ccccc21	32 (≈ 83.9 µM)	64 (≈ 168 µM)	–	512 (≈ 1340 µM)	> 512	> 512	> 512	128 (≈ 336 µM)	512 (≈ 1340 µM)	> 512	256 (≈ 671 µM)
OC(Cn1cncn1)(Cn1cncn1)c1ccc(F)cc1F [FLUCONAZOLE]	0.0312 (≈ 0.102 µM)	64 (≈ 209 µM)	> 512	16 (≈ 52.2 µM)	8 (≈ 26.1 µM)	–	–	–	–	–	–
CN[C@@H]1[C@H](O[C@H]2[C@H](O[C@H]3[C@H](O)[C@@H](O)[C@H](N=C(N)N)[C@@H](O)[C@@H]3N=C(N)N)O[C@@H](C)[C@]2(O)C=O)O[C@@H](CO)[C@H](O)[C@H]1O [STREPTOMYCIN]	–	–	–	–	–	64 (≈ 110 µM)	16 (≈ 27.5 µM)	64 (≈ 110 µM)	32 (≈ 55 µM)	> 512	32 (≈ 55 µM)
Cn1c(=O)n(CCOC(=O)CNC(=O)c2ccc([N+](=O)[O-])cc2)c(=O)c2ccccc21	–	–	–	512 (≈ 1200 µM)	64 (≈ 150 µM)	64 (≈ 150 µM)	128 (≈ 300 µM)	128 (≈ 300 µM)	512 (≈ 1200 µM)	8 (≈ 18.8 µM)	256 (≈ 600 µM)
